Like-named read-outs stand apart in the source and are kept apart here. One block for each substance: values may come before it.
Columns and labels:
PGE2 = assay: IL-1β-induced fibroblast PGE2 synthesis, RIA; assay type: cell-based, human
Protocol: Confluent fibroblast monolayer cultures were preincubated with IL-1ra peptides for 2 h and then with hrIL-1β for 24 h. PGE2 was quantitated by RIA.
Additionally, since IL-1β stimulates PGE2 synthesis by fibroblasts, the effect of peptides disclosed in Table 5 on the PGE2 production by fibroblasts was examined. Briefly, Maintenance Medium in multi-well plates comprising the fibroblasts that were grown to confluency for 3 days was changed to Maintenance Medium containing 2.5% FCS (450 μl/well). This was followed by addition of IL-1ra peptides or hrsIL-1ra (25 μl aliquots) to culture wells 2 hrs prior to addition of hrIL-1β (100 pg/ml). After an additional 24 h incubation, PGE2 was measured in these culture supernatants. PGE2 was extracted from fibroblast culture supernatants and measured by a previously described radioimmunoassay technique (Ballou et al., 1990; Postlethwaite et al., 1989). It was observed that IL-1ra peptide with SEQ ID NO: 15 inhibited IL-1-induced fibroblast synthesis of PGE2 (FIG. 23). Recombinant IL-1ra (100 ng/ml) inhibited IL-1-induced PGE2 production to a level of 150 pg/ml.

D10.G4.1 T cells = assay: lymphocyte mitogenesis assay: IL-1α-stimulated proliferation of D10.G4.1 T cells; assay type: cell-based, murine; settings: peptides added 1 hour before IL-1α (10 ng/ml)
Protocol: An hour prior to the addition of hrIL-1α, the IL-1ra peptides were added to cultures of murine T cell line, D10.G4.1 and ^3H thymidine incorporation was quantitated.
Since sIL-1ra blocks IL-1 stimulation of T cells, the abilities of the IL-1ra peptides of Table 5 to inhibit mitogenesis of murine D10.G4.1 cells in response to IL-1α were assessed by performing lymphocyte mitogenesis assay. Briefly, different concentrations of IL-1ra peptides were added to culture 1 hour prior to addition of IL-1α (10 ng/ml). The results are expressed as mean cpm of quadruplicate determinations corrected for background. The standard error of the mean for each sample tested was 10% or less. None of the peptides disclosed in Table 5 inhibited IL-1α stimulation of proliferation of D10.G4.1 T cells (FIG. 20). Further, the uptake of ^125I IL-1ra peptide with SEQ ID NO: 13 by dermal fibroblasts was investigated. Briefly, the SEQ ID NO: 13 peptide (25 μg in 125 μl 0.125 sodium borate buffer pH 8.5) was labeled with ^125I-Bolton Hunter Reagent (New England Nuclear, Boston, Mass.) according to manufacturer's instructions. The labeled IL-1ra was separated from the free ^125I by passage over a Bio-Gel P-2 (BioRad, Richmond, Calif.) 1 ml column equilibrated and eluted with phosphate buffered saline containing 0.1% gelatin. […]

TIMP-1 = assay: IL-1β-stimulated TIMP-1 production by fibroblasts, ELISA; assay type: cell-based, human
Protocol: TIMP-1 was measured in the same fibroblast culture supernatants as in FIG. 21.
(§1) Furthermore, the effect of the IL-1ra peptides on the stimulation of MMP-1 and TIMP expression was examined. Briefly, fibroblasts were seeded in wells of Flacon 3008 multiwell plates (5×10^4 cells/500 μl Maintenance Medium). After 72 h culture, the medium was removed from each well and replaced with Maintenance Medium (450 μl) containing 5% FCS and 25 μl of IL-1ra peptides or hrsIL-1ra peptide being tested. Two hrs later 25 μl IL-1β (100 pg/ml) was added to appropriate wells. Plates were incubated for 48 h, at which time medium was collected from each well. Levels of TIMP and collagenase produced by fibroblasts during culture were measured by specific ELISA techniques as previously described (Postlethwaite et al., 1988).

collagenase (MMP-1) [1] = assay: IL-1β-induced collagenase (MMP-1) production by dermal fibroblasts, ELISA; assay type: cell-based, human
Protocol: Confluent fibroblast monolayer cultures were treated for 2 hr with IL-1ra peptides and cultured for 48 h with hrIL-1β. Collagenase protein was measured in culture supernatants by ELISA.
as §1

ICAM-1 = assay: IL-1β-induced ICAM-1 expression on human dermal fibroblasts; assay type: cell-based
Protocol: Confluent fibroblast monolayers were cultured for […] with IL-1ra peptides and then for 24 h with IL-1β. ICAM expression on fibroblast monolayers was then quantitated.
Further, since IL-1 upregulates ICAM-1 expression on a variety of cells including fibroblasts, the ability of the peptides disclosed in Table 5 to inhibit IL-1β induced ICAM-1 expression on human dermal fibroblasts was examined. Briefly, fibroblasts were seeded in wells of flat bottom 96 well tissue culture plates (NUNC, Roskilde, Denmark) (1×10^4 cells […] Maintenance Medium). After 72 h, the culture medium was removed from each well and replaced with 450 μl Maintenance Medium and 25 μl of IL-1ra peptides or hrsIL-1ra (100 ng/ml). After incubation at 37° C. for 2 h in 5% CO2 humidified atmosphere, 25 μl hrIL-1β (100 pg/mL final concentration) was added to wells containing IL-1ra peptides or hrsIL-1ra. Wells with 50 μl PBS served as a negative control. PBS 25 μl+[…] IL-1β (100 pg/ml final concentration) was a positive control. Plates were incubated an additional 24 h, after which medium was removed from each well and the cells were fixed with 100 μl of 3.8% formaldehyde in PBS for 5-7 minutes at room temperature. The cells were rinsed twice with culture medium, and 100 μl of monoclonal mouse anti-ICAM-1 antibody (AMAC, Inc., Westbrook, Me.; diluted 0.2 mg original stock diluted 1:800 in culture medium) was applied to designated wells. The plate was then incubated at 4° C. overnight.
After washing the plate thrice with 300 μl of 0.1% BSA-PBS, 200 μl of secondary antibody, goat anti-mouse IgG antibody-conjugated to horseradish peroxidase (Pierce, Rockford, Ill.) diluted 1:4000 in 1% BSA-PBS, was added to each well and the plate was incubated at room temperature for 2 h. After a final wash with 0.1% BSA-PBS, 100 μl of peroxidase substrate solution (Pierce) containing 2,2′-azino-di[3-ethylbenzthiazoline sulfonate] (Kirkegaard & Perry Laboratories, Inc., Gaithersburg, Md.) was added to each well. This was followed 30-40 minutes later by reading of the optical density (OD) at 405 nm by a Microplate Autoreader (Bio-Tek Instruments, Inc., Winooski, Vt.). The color solution was discarded and the plate was then washed twice with PBS. Finally, the cells were digested with 30 μl of 0.6 M NaOH overnight, and the amount of protein in each well was determined using BCA assay reagents (Pierce). ICAM-1 expression was presented as OD/mg protein. […] The hrsIL-1ra (100 ng/mL) inhibited IL-1β-induced ICAM-1 expression to 6 O.D. units/mg of cellular protein.

type I IL-1R [2] = molecular target: T1, type I IL-1R (Mus musculus, UniProt P13504); assay: [125I] IL-1beta competitive binding to type I IL-1 receptors on EL4 6.1 cells; design: IL-1beta from type I IL-1Rs on the EL46.1 cells; endogenous in cells; host or cells: EL4 6.1 (murine T cell line); species or system murine
T1 sequence (P13504 20-576): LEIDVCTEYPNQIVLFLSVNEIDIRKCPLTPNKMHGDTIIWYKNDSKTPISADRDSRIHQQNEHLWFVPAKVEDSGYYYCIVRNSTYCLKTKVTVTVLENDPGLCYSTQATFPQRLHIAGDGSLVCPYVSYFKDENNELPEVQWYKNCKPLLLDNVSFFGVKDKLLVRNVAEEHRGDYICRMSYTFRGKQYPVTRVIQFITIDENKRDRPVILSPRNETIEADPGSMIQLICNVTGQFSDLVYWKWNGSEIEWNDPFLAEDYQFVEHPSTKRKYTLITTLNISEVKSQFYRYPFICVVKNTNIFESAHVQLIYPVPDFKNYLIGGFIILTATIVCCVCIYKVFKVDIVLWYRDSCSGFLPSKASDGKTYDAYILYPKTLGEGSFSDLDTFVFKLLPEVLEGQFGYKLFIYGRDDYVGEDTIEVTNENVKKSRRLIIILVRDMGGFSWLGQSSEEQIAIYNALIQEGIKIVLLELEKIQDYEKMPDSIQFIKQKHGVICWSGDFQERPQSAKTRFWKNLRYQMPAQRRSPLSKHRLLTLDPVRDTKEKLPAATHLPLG
Protocol: IL-1 beta for binding to type I IL-1 receptors on murine cells. EL46.1 cells were incubated at 4° C. in presence of the sodium azide for 2 hr with and without each of the IL-1ra peptides or with soluble human recombinant interleukin 1ra (shrIL-1ra) as a control. Cells were then incubated with [^125I]hrIL-1, transferred to microfuge tubes containing phthalolate oil, centrifuged and free and bound radioactivity determined. Non-specific binding was determined in the presence of 100× excess concentration of cold hrIL-1 beta.
None of the peptides were able to displace [^125I] IL-1beta from type I IL-1Rs on the EL46.1 cells (FIG. 19). Additionally a competitive binding assay was performed in which the IL-1ra peptides were added to the EL4 cells at the same time [^125I] was added. No displacement of [^125I] IL-1 beta was observed from its receptors in the presence of these IL-1ra peptides.

collagenase (MMP-1) [3] = assay: IL-1β-induced collagenase (MMP-1) production by dermal fibroblasts, ELISA; assay type: cell-based, human; settings: same wells as collagenase assay
type I IL-1R [4] = molecular target: T1, type I IL-1R; design: host or cells: EL4.IL-2 murine thymoma cells; settings: murine thymoma cell line EL4.IL-2; read-out: affinity (Kp) for type I IL-1R; cited from earlier work
[5] = listed as 60-90 (SEQ ID NO: 15)

inhibition of IL-1-induced collagenase production by fibroblasts (collagenase (MMP-1) [1]): failed to block
Substance: IHGGKMCLSCVKSGDETRLQLEAVNITDLSE (IL-1ra peptides representing the mature form of human sIL-1ra) [IL-1ra 60-90, synthetic peptide, residues 60-90 of IL-1ra]
inhibition of IL-1-induced fibroblast PGE2 synthesis (PGE2; [5]): blocked
inhibition of IL-1-induced fibroblast PGE2 synthesis (PGE2; listed as IL-1ra peptide 60-90): inhibited
inhibition of IL-1-induced fibroblast PGE2 synthesis (PGE2; listed as SEQ ID NO: 15): inhibited
inhibition of IL-1-stimulated proliferation of D10.G4.1 T cells (D10.G4.1 T cells): did not block
inhibition of IL-1β-induced TIMP-1 production by fibroblasts (TIMP-1): failed to block
inhibition of IL-1β-induced ICAM-1 expression on fibroblasts (ICAM-1; [5]): blocked
inhibition of IL-1β-induced ICAM-1 expression on fibroblasts (ICAM-1; listed as IL-1ra peptide 60-90): inhibited
inhibition of IL-1β-induced ICAM-1 expression on fibroblasts (ICAM-1; listed as SEQ ID NO: 15): inhibited the ICAM-1 expression on cultured fibroblasts in a dose dependent manner

concentrations at which IL-1 induced collagenase synthesis was inhibited (collagenase (MMP-1) [1]; dermal fibroblasts, FIG. 21): ≥ 10^−10 M
inhibition of IL-1-induced collagenase production by fibroblasts (collagenase (MMP-1) [1]; listed as 1-35 (SEQ ID NO: 13)): blocked
inhibition of IL-1-induced collagenase production by fibroblasts (collagenase (MMP-1) [1]; listed as IL-1ra peptide 1-35): inhibited
Substance: RPSGRKSSKMQAFRIWDVNQKTFYLRNNQLVAGYL (IL-1ra peptides representing the mature form of human sIL-1ra) [IL-1ra 1-35, synthetic peptide, residues 1-35 of mature human sIL-1ra]
competition with / displacement of [125I] IL-1beta from type I IL-1Rs (type I IL-1R [2]; EL4 6.1 cells): did not competitively inhibit the binding
fibroblast growth (counting trypsinized cells in hemocytometer) (collagenase (MMP-1) [3]): unchanged

displacement of [125I] IL-1 beta from EL4 cells (type I IL-1R [2]; 100× excess): greater than 90%
Substance: hrsIL-1ra: soluble human recombinant interleukin 1ra, used as control [reference compound]
level to which IL-1-induced PGE2 production was inhibited (PGE2; 100 ng/ml): 150 pg/mL
Kd (type I IL-1R [4]): 0.15 nM
level to which IL-1β-induced ICAM-1 expression was inhibited (ICAM-1; 100 ng/mL): 6 O.D. units/mg of cellular protein
